Reference: PubChem BioAssay AID248 (DTP/NCI, 2004)
Where “and” joins values, the source holds several entries; their conditions need not be identical. Equal values may be shown once. Inconclusive results and toxic doses are left out. No stated cut-off is given here; in the data, active means T/C of 150% or more; inactive means T/C below 125%.

Test system: L1210 leukemia ip in BDF1 mice, survival T/C
Test: NCI In Vivo Anticancer Drug Screen. Data for tumor model L1210 Leukemia (intraperitoneal) in B6D2F1 (BDF1) mice
Details: endpoint: mean survival time, higher = longer survival
In short: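 Antitumor effect is assessed in tumor-bearing animals. Survival in the compound arm is compared with a vehicle-dosed control arm and expressed as their quotient.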

[1] = dose: 100.0 mg/kg/injection, schedule: Q01DX001 (ip), vehicle: Klucel (hydroxypropylcellulose) (HPC)
[2] = dose: 100.0 mg/kg/injection, schedule: Q04DX003 (ip), vehicle: Klucel (hydroxypropylcellulose) (HPC)
[3] = dose: 200.0 mg/kg/injection, schedule: Q01DX001 (ip), vehicle: Klucel (hydroxypropylcellulose) (HPC)
[4] = dose: 400.0 mg/kg/injection, schedule: Q01DX001 (ip), vehicle: Klucel (hydroxypropylcellulose) (HPC)
[5] = dose: 100.0 mg/kg/injection, schedule: Q04DX003 (ip), vehicle: saline with Tween-80
[6] = dose: 200.0 mg/kg/injection, schedule: Q04DX003 (ip), vehicle: saline with Tween-80
[7] = dose: 400.0 mg/kg/injection, schedule: Q04DX003 (ip), vehicle: saline with Tween-80
[8] = dose: 100.0 mg/kg/injection, schedule: Q01DX009 (ip), vehicle: Klucel (hydroxypropylcellulose) (HPC)
[9] = dose: 100.0 mg/kg/injection, schedule: Q04DX002 (ip), vehicle: Klucel (hydroxypropylcellulose) (HPC)
[10] = dose: 200.0 mg/kg/injection, schedule: Q01DX009 (ip), vehicle: Klucel (hydroxypropylcellulose) (HPC)
[11] = dose: 200.0 mg/kg/injection, schedule: Q04DX002 (ip), vehicle: Klucel (hydroxypropylcellulose) (HPC)
[12] = dose: 200.0 mg/kg/injection, schedule: Q04DX003 (ip), vehicle: Klucel (hydroxypropylcellulose) (HPC)
[13] = dose: 400.0 mg/kg/injection, schedule: Q01DX009 (ip), vehicle: Klucel (hydroxypropylcellulose) (HPC)
[14] = dose: 400.0 mg/kg/injection, schedule: Q04DX002 (ip), vehicle: Klucel (hydroxypropylcellulose) (HPC)
[15] = dose: 400.0 mg/kg/injection, schedule: Q04DX003 (ip), vehicle: Klucel (hydroxypropylcellulose) (HPC)
[16] = dose: 100.0 mg/kg/injection, schedule: Q01DX001 (ip), vehicle: saline
[17] = dose: 200.0 mg/kg/injection, schedule: Q01DX001 (ip), vehicle: saline
[18] = dose: 100.0 mg/kg/injection, schedule: Q01DX001 (ip), vehicle: carboxymethylcellulose (CMC)
[19] = dose: 200.0 mg/kg/injection, schedule: Q01DX001 (ip), vehicle: carboxymethylcellulose (CMC)
[20] = dose: 400.0 mg/kg/injection, schedule: Q01DX001 (ip), vehicle: carboxymethylcellulose (CMC)
[21] = dose: 400.0 mg/kg/injection, schedule: Q01DX001 (ip), vehicle: saline
[22] = dose: 100.0 mg/kg/injection, schedule: Q04DX003 (ip), vehicle: saline
[23] = dose: 200.0 mg/kg/injection, schedule: Q04DX003 (ip), vehicle: saline
[24] = dose: 400.0 mg/kg/injection, schedule: Q04DX003 (ip), vehicle: saline
[25] = dose: 12.5 mg/kg/injection, schedule: Q04DX003 (ip), vehicle: saline
[26] = dose: 100.0 mg/kg/injection, schedule: Q01DX009 (ip), vehicle: saline
[27] = dose: 200.0 mg/kg/injection, schedule: Q01DX009 (ip), vehicle: saline

Measured: T/C

O=C(c1ccccc1)C(Cl)C(=O)c1ccccc1
inactive: dose: 12.5 mg/kg/injection, schedule: Q04DX003 (ip), vehicle: Klucel (hydroxypropylcellulose) (HPC) 94 % of control | dose: 25.0 mg/kg/injection, schedule: Q04DX003 (ip), vehicle: Klucel (hydroxypropylcellulose) (HPC) 115 % of control | dose: 50.0 mg/kg/injection, schedule: Q04DX003 (ip), vehicle: Klucel (hydroxypropylcellulose) (HPC) 96 % of control | [1] 98 % of control | [2] 100 % of control | [3] 97 % of control | [4] 95 % of control

COCc1nc2ccccc2[nH]1
inactive: [5] 106 % of control | [6] 97 % of control | [7] 93 % of control

CS(=O)NOCCCCONS(C)=O (centres undefined)
inactive: dose: 100.0 mg/kg/injection, schedule: Q04DX002 (ip), vehicle: saline with Tween-80 96 % of control and 89 % of control | dose: 200.0 mg/kg/injection, schedule: Q04DX002 (ip), vehicle: saline with Tween-80 96 % of control and 100 % of control | dose: 400.0 mg/kg/injection, schedule: Q04DX002 (ip), vehicle: saline with Tween-80 86 % of control

COc1ccc(OC)c(NC(=O)Nc2nccs2)c1
inactive: [1] 95 % of control | [8] 97 % of control | [9] 97 % of control and 98 % of control | [2] 96 % of control and 122 % of control | [3] 90 % of control | [10] 88 % of control | [11] 96 % of control and 90 % of control | [12] 100 % of control | [4] 95 % of control | [13] 91 % of control | [14] 96 % of control and 101 % of control | [15] 102 % of control and 116 % of control

OCC(O)COc1ccnc2ccccc12 (centres undefined)
inactive: dose: 100.0 mg/kg/injection, schedule: Q01DX009 (ip), vehicle: acetone 105 % of control | dose: 200.0 mg/kg/injection, schedule: Q01DX009 (ip), vehicle: acetone 97 % of control | dose: 400.0 mg/kg/injection, schedule: Q01DX009 (ip), vehicle: acetone 97 % of control

CCOC(=O)C1CCNC(=O)C1=O (centres undefined)
inactive: dose: 50.0 mg/kg/injection, schedule: Q01DX001 (ip), vehicle: saline 104 % of control | [16] 101 % of control | [17] 97 % of control

CCOC(=O)/C=C1/Nc2cc(Cl)c(Cl)cc2NC1=O
inactive: [5] 97 % of control | [6] 95 % of control | [7] 89 % of control

CCOc1ccccc1C1N2CCN(CC2)C(c2ccccc2OCC)N2CCN1CC2 (centres undefined)
inactive: dose: 50.0 mg/kg/injection, schedule: Q01DX001 (ip), vehicle: carboxymethylcellulose (CMC) 100 % of control | [18] 100 % of control | [19] 100 % of control | [20] 105 % of control

CCOC(=O)/C=C/c1c(C)[nH]c(=O)[nH]c1=O
inactive: [16] 94 % of control | dose: 150.0 mg/kg/injection, schedule: Q04DX003 (ip), vehicle: saline 102 % of control | [17] 93 % of control | dose: 300.0 mg/kg/injection, schedule: Q04DX003 (ip), vehicle: saline 96 % of control | [21] 93 % of control | dose: 600.0 mg/kg/injection, schedule: Q04DX003 (ip), vehicle: saline 103 % of control

O=C1c2ccccc2-c2cc(S)ccc21
inactive: [18] 109 % of control | [19] 104 % of control | [20] 101 % of control

CCCCC(CCCC)NCCOC(=O)c1ccc(N)cc1
inactive: dose: 75.0 mg/kg/injection, schedule: Q01DX001 (ip), vehicle: other 102 % of control

Cc1ccc(Cl)c(NC(=O)c2ccccc2Cl)c1
inactive: [9] 97 % of control | [11] 97 % of control | [14] 104 % of control

O=C1c2cccc3cc([N+](=O)[O-])cc(c23)C(=O)N1CCc1ccccn1
inactive: [9] 94 % of control | [11] 102 % of control | [14] 108 % of control

CCOC(=O)N/N=C\c1cc(OC)c(OC)c(OC)c1
inactive: dose: 50.0 mg/kg/injection, schedule: Q01DX009 (ip), vehicle: saline with Tween-80 103 % of control | dose: 100.0 mg/kg/injection, schedule: Q01DX009 (ip), vehicle: saline with Tween-80 98 % of control | [5] 102 % of control | [6] 103 % of control

CCOC(=O)C(=O)Nc1ccccc1-c1ccccc1
inactive: [22] 102 % of control | [23] 98 % of control | [24] 101 % of control

NC1=N/C(=C/[N+](=O)[O-])c2ccccc21
inactive: dose: 6.25 mg/kg/injection, schedule: Q04DX003 (ip), vehicle: saline 93 % of control | [25] 96 % of control

c1ccc2c(c1)cnn1cnnc21
inactive: dose: 75.0 mg/kg/injection, schedule: Q01DX001 (ip), vehicle: carboxymethylcellulose (CMC) 115 % of control | dose: 150.0 mg/kg/injection, schedule: Q01DX001 (ip), vehicle: carboxymethylcellulose (CMC) 97 % of control

CCCCCCCCCCCCCCCCCCN(c1ccc(C(=O)OCC)cc1)S(=O)(=O)c1ccc(C)cc1
inactive: dose: 50.0 mg/kg/injection, schedule: Q01DX009 (ip), vehicle: saline 93 % of control | [26] 93 % of control | [22] 97 % of control | [27] 90 % of control | [23] 94 % of control | [24] 94 % of control

Cc1ccc(C)n1Cc1ccccc1
inactive: dose: 100.0 mg/kg/injection, schedule: Q04DX003 (ip), vehicle: other 98 % of control | dose: 200.0 mg/kg/injection, schedule: Q04DX003 (ip), vehicle: other 98 % of control | dose: 400.0 mg/kg/injection, schedule: Q04DX003 (ip), vehicle: other 101 % of control

CC(=O)OC1CCC2(C)C(CCC3C4CCC(C(C)CC(=O)O)C4CCC32)C1 (centres undefined)
inactive: dose: 100.0 mg/kg/injection, schedule: Q04DX003 (sc), vehicle: steriod suspending solution 106 % of control | dose: 200.0 mg/kg/injection, schedule: Q04DX003 (sc), vehicle: steriod suspending solution 106 % of control | dose: 400.0 mg/kg/injection, schedule: Q04DX003 (sc), vehicle: steriod suspending solution 111 % of control

CC(=O)CSc1ccccn1
inactive: [18] 102 % of control | [19] 94 % of control | [20] 96 % of control

Cc1cc(C)c(CN)cc1C
inactive: dose: 5.0 mg/kg/injection, schedule: Q04DX003 (ip), vehicle: saline with Tween-80 95 % of control | dose: 10.0 mg/kg/injection, schedule: Q04DX003 (ip), vehicle: saline with Tween-80 95 % of control | dose: 20.0 mg/kg/injection, schedule: Q04DX003 (ip), vehicle: saline with Tween-80 95 % of control

N=C(c1ccccc1)C1SCCCS1
inactive: [2] 103 % of control | [12] 97 % of control | [15] 97 % of control

CSc1ncc(COP(=S)(OCc2cnc(SC)nc2N)OCc2cnc(SC)nc2N)c(N)n1
inactive: [25] 100 % of control | dose: 25.0 mg/kg/injection, schedule: Q04DX003 (ip), vehicle: saline 103 % of control | dose: 50.0 mg/kg/injection, schedule: Q04DX003 (ip), vehicle: saline 97 % of control

C=CCOc1ccc2c(C)cc(=O)oc2c1C
inactive: dose: 100.0 mg/kg/injection, schedule: Q01DX008 (ip), vehicle: Klucel (hydroxypropylcellulose) (HPC) 93 % of control | [8] 94 % of control | [2] 96 % of control | dose: 200.0 mg/kg/injection, schedule: Q01DX008 (ip), vehicle: Klucel (hydroxypropylcellulose) (HPC) 88 % of control | [10] 96 % of control | [12] 96 % of control | dose: 400.0 mg/kg/injection, schedule: Q01DX008 (ip), vehicle: Klucel (hydroxypropylcellulose) (HPC) 86 % of control | [13] 97 % of control | [15] 96 % of control

CCCNC(=O)/C=C\C(=O)O
inactive: [16] 108 % of control | [26] 93 % of control | [17] 101 % of control | [27] 90 % of control | [21] 106 % of control | dose: 400.0 mg/kg/injection, schedule: Q01DX009 (ip), vehicle: saline 95 % of control
